# Article PMC6789442, “Unraveling Hepcidin Plasma Protein Binding: Evidence from Peritoneal Equilibration Testing” (Pharmaceuticals, 2019)
# Like-named read-outs stand apart in the source and are kept apart here.
# Columns and labels:
# plasma proteins = assay: Plasma protein binding percentage calculated from measured vs expected peritoneal clearance (MW-clearance curve); format: in vivo, human; conditions: (1 − measured PC / expected PC) × 100%; expected PC from Log10(PC) = 4.5744 – 0.05063 × cube root MW; ESRD patients in PET; mean (±sd)
# Text: Logarithmic transformation was used for PC data before statistical analysis, as the data was not normally distributed. In addition, we used a cube root scaling for MW, since transport rates are related to size and thus radius (r), and considering volume as a three-dimensional characteristic of the radius (r^3). The curve describing the relation between MW and PC of all analytes was estimated with a linear mixed model using a random slope and random intercept. The expected PC of each analyte could be calculated using its MW and the equation of the curve. We calculated the binding percentage as:Binding percentage (%) = (1 − (Measured PC)/(Expected PC)) × 100%.(3)
# In this equation, the measured PC divided by the expected PC represents the free hormone fraction. The strength of a linear association between the clearances of two analytes was measured using Spearman’s correlation coefficient.
# [1] = Solute concentration in blood (plasma/serum) before dialysis
# Description: (§1) All were centrifuged at 2000 g for 10 min.
# (§2) Measurements of urea, creatinine, and IgG were performed on a Cobas C8000 random access analyzer (Roche Diagnostics, Basel, Switzerland).
# (§3) This MS-based assay determines total hepcidin (i.e., the sum of bound and unbound fraction). Peptide spectra were generated on a Microflex LT […] laser desorption/ionisation TOF MS platform (Bruker Daltonics, Hamburg, Germany). Hepcidin concentrations were expressed as nmol/L. The lower limit of quantification of this method was 0.5 nM.
# Cortisol and testosterone were analyzed by Liquid Chromatography-Mass Spectrometry (LC-MS/MS) after protein precipitation and solid-phase extraction. Internal standard [^2H4]-cortisol and [^13C3]-testosterone (Isoscience, Ambler, PA, USA) was added to 100 µL serum. Subsequently, 300 µL acetonitrile with 0.1% formic acid was added for protein precipitation and 300 µL H2O was added to 200 µL supernatant followed by solid phase extraction (Oasis HLB 1cc, Waters, Milford, MA, USA). The eluate (methanol:isopropanol 95:5) was dried under a stream of N2 gas, reconstituted in methanol:water (3:7) and injected (10 µL) into an Agilent Technologies 1290 Infinity Ultra High Performance Liquid Chromatography (UHPLC)-system (Agilent Technologies, Agilent, Santa Clara, CA, USA) equipped with a BEH C18 (1.7 μm 2.1 × 50 mm) analytical column (Waters Corp.) at 60 °C. Mobile phase A (methanol:water 20:80 + 2 mM NH4CH3COO + 0.1% formic acid) and B (methanol:water 98:2 + 2 mM NH4CH3COO + 0.1% formic acid) were run in a gradient (0.4 mL/min). Start gradient 70:30 A:B for 2.5 min; then to 40:60 A:B in 3.5 min; followed by a gradient in 0.5 min to 2:98 to remain such for 0.5 min and thereafter to 70:30 A:B in 0.5 min and remain such for 0.5 min. […] Total run time was 8 min. A 9-point calibration curve was used (cortisol and testosterone, Steraloids). An Agilent 6490 tandem mass spectrometer (Agilent Technologies, Agilent, Santa Clara, CA, USA) was operated in the electrospray positive ion mode, with a capillary voltage 3.5 kV, fragmentor voltage 380 V, sheath gas temperature 350 °C, and gas temperature 150 °C with N2 collision gas. Two transitions (qualitative and quantitative) were monitored. Transitions (Q1 > Q3) were m/z 363.4 > 97.1 (34 V) and m/z 363.4 > 121.1 (25 V) for cortisol; m/z 367.4 > 97.1 (34 V) and m/z 367.4 > 121.1 (25 V) for [2H4]-cortisol. m/z 289.2 > 109.1 […] and m/z 289.2 > 97.1 […] for testosterone; m/z 292.3 > 112.1 […] and m/z 292.3 > 100.1 […] for 13C3-testosterone. Dwell time was 100 ms and 50 ms for cortisol and testosterone, respectively.
# [2] = Solute concentration in peritoneal dialysate at 1 h dwell
# Description: as §1, §2, §3
# Testosterone and cortisol in peritoneal dialysate were analyzed by LC-MS/MS after solid-phase extraction. Sample preparation consisted of internal standard addition [13C3]-testosterone (Isoscience, Ambler, PA, USA) and […] (Isoscience) to 1000 µL dialysate and solid phase extraction (SPE) using Oasis® MCX 1cc cartridges (Waters Corp, Milford, MA, USA).
# Columns were pre-equilibrated with 1 mL MeOH:IPA (95:5) and subsequently washed with 1 mL H2O. After application of the sample, columns were washed with 1 mL H2O:NH4OH (95:5) and 1 mL MeOH:H2O (20/80) + 2% HCOOH. The 300 µL eluate (MeOH) was dried under a stream of N2 gas, reconstituted in MeOH:H2O (30:70). A nine-point calibration series was used (using testosterone and cortisol both from Steraloids). Calibrators, quality controls, and samples (reconstituted in 100 µL) were injected (10 µL) into an Agilent Technologies 1290 Infinity VL UHPLC-system (Agilent Technologies, Santa Clara, USA), equipped with a BEH C18 (1.7 μm 2.1 X 50 mm) analytical column (Waters Corp., Milford, MA, USA) at 60 °C. Mobile phase A (MeOH/H2O (20:80) + 2 mM NH4CH3COO + 0.1% HCOOH) and B (MeOH/H2O (98:2) + 2 mM NH4CH3COO + 0.1% HCOOH) were run in a gradient (0.4 mL/min). The gradient program was as follows: Start gradient A:B (70:30) for 2.5 min; followed by a gradient in 2 min to A:B (60:40) and subsequent 2.5 min A:B (35:65). For column washing, a gradient 0.5 min A:B (98:2) was established to remain such for 0.5 min. The column was re-equilibrated to A:B (70:30) in 0.5 min and remained such for 0.5 min. […] An Agilent 6490 tandem mass spectrometer (Agilent Technologies, Santa Clara, CA, USA) was operated in the electrospray positive ion mode. Operating conditions were as follows: Capillary voltage 3.5 kV, fragmentor voltage 380 V, sheath gas temperature 350 °C, and gas temperature 150 °C. The collision energy was optimized between 25 and 34 eV for all solutes and Nitrogen was used as collision gas. Two mass transitions were monitored for each analyte and the internal standards. The first transition was used for quantification, the second for confirmation. The transitions (Q1 > Q3) were m/z 289 > 97 and m/z 289 > 109 for testosterone; m/z 292 > 100 and m/z 292 > 112 for [13C3]-testosterone; m/z 363 > 121 and m/z 363 > 97 for cortisol; m/z 367 > 121 and m/z 367 > 97 for [3H4]-cortisol. Total run time was 9 min.
# For both total and free cortisol PC calculations, we used total cortisol measurements in dialysate, since we assume that all cortisol present in dialysate after 1 h of dwell time is free considering the large MW of its main binding protein corticosteroid binding globulin (MW 52 kDa).
# [3] = rapidly excreted by the kidneys; cited from earlier work
# Text: Our finding that hepcidin is not predominantly bound is in line with other literature, in which a merely freely circulating hepcidin was observed using gel chromatography on human serum samples, followed by Liquid Chromatography-Mass Spectrometry (LC-MS/MS). In fact, other peptide hormones such as human growth hormone, insulin [28], and cardiac natriuretic hormones circulate freely, since peptide hormones are often water-soluble and can, therefore, easily be transported via the cardiovascular system without requiring carrier proteins. In addition, hepcidin is ...
# [4] = Peritoneal clearance from peritoneal equilibration test (PET); conditions: ESRD patients in PET; for Peritoneal Clearance t = 0–1 h Mean (sd): [Dialysate] t = 1 h / [Blood] t = 0 h × dialysate volume / 60 min, total blood concentration, N 14, 13 testosterone, 10 cortisol, 13 hepcidin
# Description: (§4) Dialysate sampling was performed at 1 h of dwell time (t = 1 h), since peritoneal transport of solutes with a low MW (<200 Da) will decrease over a longer period of time due to saturation of the dialysate [22]. For sampling, all dialysate fluid was collected in a plastic (PVC) bag and mixed ex vivo before a sample was taken, to assure dialysate samples were representative for the fluid in the peritoneal cavity. Thereafter, the remaining dialysate was returned into the peritoneal cavity. […] Blood samples were drawn prior to dialysis (t = 0 h) in both heparin plasma and serum tubes. All were centrifuged at 2000 g for 10 min. Blood and dialysate samples were aliquoted and immediately stored at −80 °C until measurement.
# (§5) Measurement results for solutes below the lower limit of detection (LLOD) were excluded.
# [5] = in vivo
# Description: as §4, §5
# [6] = ESRD patients, serum at t = 0 h, equilibrium dialysis 5 h, 37 °C, 5 kDa membrane, HEPES buffer pH 7.40, LC-MS/MS, N = 9
# Description: Serum was dialyzed in a multi-cell equilibrium dialyzer using Teflon dialyzing cells consisting of two identical parts between which a flat membrane is fitted (Dianorm-Geräte). The dialysis cells are incubated in a water bath with constant agitation by a rotating apparatus and temperature during dialysis was maintained at 37 ± 0.5 °C, by constant monitoring with an immersion thermostatic system (Tinytag TGP-4020 logger and PB5001-1M5 sonde; Gemini data loggers). The dialysis membranes were prepared from Dianorm (Diachema dialysis membranes 10.14) with a cut-off of 5 kDa. Equilibrium dialysis was performed for 5 h with 180 µL serum against 180 µL HEPES buffer; while rotating the dialysis apparatus at 20 rpm.
# [7] = peritoneal dialysate at 1 h dwell, 3.86% glucose solution, ESRD patients, total measurement, mean (sd), N 13 testosterone, 10 cortisol, 13 hepcidin
compound,measurement,setting,value
hepcidin,Binding percentage (protein-bound fraction),plasma proteins,40% (±23%)
same,"[Plasma] t = 0 h Mean (sd), total concentration",[1]; in vivo,10.6 (9.1) nmol/L
same,[Dialysate] t = 1 h Mean (sd),[2]; in vivo,1.2 (1.1) nmol/L
same,half-life,[3],several hours
same,Peritoneal Clearance t = 0–1 h Mean (sd),[4],4337.5 (1713.1) µL/min
"CN1CC(=O)NC1=N [Creatinine, creatinine]",[Plasma] t = 0 h Mean (sd),[1]; in vivo,542.0 (172.6) µmol/L
same,[Dialysate] t = 1 h Mean (sd),[2]; in vivo,296.9 (119.9) µmol/L
same,Peritoneal Clearance t = 0–1 h Mean (sd),[5],"21,499.6 (5861.6) µL/min"
"C[C@]12CCC(=O)C=C1CC[C@@H]1[C@@H]2[C@@H](O)C[C@@]2(C)[C@H]1CC[C@]2(O)C(=O)CO [Cortisol, cortisol]",Binding percentage (protein-bound fraction),plasma proteins,91% (±3%)
same,"[Plasma] t = 0 h Mean (sd), total concentration",[1]; in vivo,229.1 (134.4) nmol/L
same,[Dialysate] t = 1 h Mean (sd),[2]; [7],8.4 (5.8) nmol/L
same,"[Dialysate] t = 1 h Mean (sd), row of free cortisol","[2]; total cortisol measured in dialysate at 1 h, assumed to be all free, used for free cortisol clearance, mean (sd), N = 9",8.4 (5.8) nmol/L
same,Peritoneal Clearance t = 0–1 h Mean (sd),[5],1439.0 (490.8) µL/min
same,"[Plasma] t = 0 h Mean (sd), free cortisol",[6],12.7 (7.7) nmol/L
same,"Peritoneal Clearance t = 0–1 h Mean (sd), free cortisol","[4]; calculated with free serum cortisol at t = 0 h and total cortisol in dialysate at 1 h, N = 9","25,030.8 (8123.9) µL/min"
"C[C@]12CC[C@H]3[C@@H](CCC4=CC(=O)CC[C@@]43C)[C@@H]1CC[C@@H]2O [Testosterone, testosterone]",Binding percentage (protein-bound fraction),plasma proteins,97% (±1.5%)
same,"[Plasma] t = 0 h Mean (sd), total concentration","[1]; ESRD patients undergoing PET, blood at t = 0 h, total = free and protein-bound, cortisol/testosterone LC-MS/MS, hepcidin WCX-TOF MS, mean (sd), N 13 testosterone, 10 cortisol, 13 hepcidin",8.6 (7.3) nmol/L
same,[Dialysate] t = 1 h Mean (sd),[2]; [7],0.1 (0.1) nmol/L
same,Peritoneal Clearance t = 0–1 h Mean (sd),[4],507.7 (260.5) µL/min
"NC(N)=O [Urea, urea]",[Plasma] t = 0 h Mean (sd),"[1]; ESRD patients on peritoneal dialysis undergoing PET, blood drawn before dialysis (t = 0 h), endogenous solute, mean (sd), N = 14",21.5 (6.6) mmol/L
same,[Dialysate] t = 1 h Mean (sd),"[2]; peritoneal dialysate at 1 h dwell, 3.86% glucose solution, ESRD patients, mean (sd), N = 14",15.0 (6.1) mmol/L
same,Peritoneal Clearance t = 0–1 h Mean (sd),[4],"26,959.1 (6211.8) µL/min"
